Assay results reported in patent US8138333B2, “Sulfonyl-indole derivatives” (Proximagen Limited, priority 2007, dated 2012).
Where a name gives a salt, the structure may show the parent alone. Read-outs that look alike come from different tables or passages of the source. Values belong to the compound of their own block, whether it stands above or below them.

Experiments:
[1] = molecular target: T1, human 5-HT6 receptor (Homo sapiens, UniProt P50406); experiment: 5-HT6 receptor binding assay ([3H]-LSD, SPA, membranes of transfected HEK293 cells)
T1 construct: expressed in transfected cells; host or cells: HEK293 (G-418 selected), membrane preparation
T1 sequence (P50406 whole entry): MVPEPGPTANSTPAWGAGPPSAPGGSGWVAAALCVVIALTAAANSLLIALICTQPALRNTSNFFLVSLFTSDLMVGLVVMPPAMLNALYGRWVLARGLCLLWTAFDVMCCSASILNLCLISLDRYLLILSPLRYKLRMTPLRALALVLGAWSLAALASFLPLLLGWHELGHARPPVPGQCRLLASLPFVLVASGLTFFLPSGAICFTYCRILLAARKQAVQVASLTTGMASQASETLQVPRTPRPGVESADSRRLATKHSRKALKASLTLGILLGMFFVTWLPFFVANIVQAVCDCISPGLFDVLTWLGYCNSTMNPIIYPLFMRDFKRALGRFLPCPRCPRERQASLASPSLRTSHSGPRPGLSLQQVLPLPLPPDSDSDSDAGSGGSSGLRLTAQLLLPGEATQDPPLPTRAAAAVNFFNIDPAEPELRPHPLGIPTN

[2] = molecular target: T1, human 5-HT6 receptor; experiment: 5-HT6 intrinsic activity assay (inhibition of 5-HT induced increase in cAMP); type: cell-based; conditions: read-out: Antagonist potency at the h5-HT6 receptor, IC50,corr
Description: (b) 5-HT6 Intrinsic Activity Assay
Briefly, HEK293/5-HT6 cells were seeded in polylysine coated 96-well plates at a density of 25,000/well and grown in DMEM (Dulbecco's Modified Eagle Medium) (without phenol-red) containing 5% dialyzed Foetal Bovine Serum for 48 h at 37° C. in a 5% CO2 incubator. The medium was then aspirated and replaced by 0.1 ml assay medium (Hanks Balance Salt Solution containing 20 mM HEPES, 1.5 mM isobutylmethylxanthine and 1 mg/ml bovine serum albumin). After addition of test substances, 50 μl dissolved in assay medium, the cells were incubated for 10 min at +37° C. in a 5% CO2 incubator. The medium was again aspirated and the cAMP content was determined using a radioactive cAMP kit (Amersham Pharmacia Biotech, BIOTRAK RPA559).

Structure (SMILES): CN1CCc2cccc3c2c(cn3S(=O)(=O)c2ccccc2)C1 [Example 13, 4-Methyl-1-(phenylsulfonyl)-3,4,5,6-tetrahydro-1H-azepino[3,4,5-cd]indole hydrochloride]
Ki [1]: 0.006 µM

Structure (SMILES): CCN1Cc2cccc3c2c(cn3S(=O)(=O)c2ccccc2)C1 [Example 5, 4-Ethyl-1-(phenylsulfonyl)-1,3,4,5-tetrahydropyrrolo[4,3,2-de] isoquinoline trifluoroacetate]
Ki ([1]; read-out: Binding affinity (Ki) at the h5-HT6 receptor): 0.021 µM

Structure (SMILES): O=S(=O)(c1ccccc1)n1cc2c3c(cccc31)CNCC2 [Example 15, 1-(Phenylsulfonyl)-3,4,5,6-tetrahydro-1H-azepino[5,4,3-cd]indole]
IC50 [2]: 0.008 µM

Second part, the compound after the results:

IC50 [2]: 0.028 µM
Structure (SMILES): O=S(=O)(c1ccccc1)n1cc2c3c(cccc31)CN(Cc1ncc[nH]1)C2 [Example 3, 4-(1H-Imidazol-2-ylmethyl)-1-(phenylsulfonyl)-1,3,4,5-tetrahydropyrrolo[4,3,2-de]isoquinoline bis(trifluoroacetate)]

Hill coefficient ([1]; inter assay, over three experiments): 0.94 (SD 0.09)
Structure (SMILES): NCCc1c[nH]c2ccc(O)cc12 [Example 5-HT, 5-hydroxytryptamine, reference compound]
